# Experimental data taken from patent publication US4554353A, “2,5-Pyrrolidinedione derivatives useful as antiarrhythmic agents” (G. D. Searle & Co., priority 1984, dated 1985).
# Columns and labels:
# Ventricular arrhythmia = experiment: Harris Dog Efficacy (ventricular arrhythmia induced by 2-stage coronary artery ligation in unanesthetized dogs); type: in vivo; conditions: for activity in the dog ventricular arrhythmia test: active = at least 25% reduction in ectopic beats for at least 10 minutes in half or more of dogs; for minimal effective dose: Canis lupus familiaris, 10 min, intravenous, unanesthetized dogs, at least 25% reduction in ectopic beats for at least 10 minutes in half or more of dogs
# Method: Ventricular arrhythmia is induced by a 2-stage ligation of the anterior descending branch of the left coronary artery in each of two or more unanesthetized dogs. The test compound is administered intravenously at 5 mpk doses to a maximum dose of 20 mpk.
# Muscarinic Receptor = Muscarinic Receptor Binding Assay (3H-QNB displacement, rat brain homogenate); conditions: inhibition of specific 3H-QNB binding by 50%, 0.15 nM 3H-QNB, pH 7.4, 25° C., 1 hour
SMILES,activity in the dog ventricular arrhythmia test (Ventricular arrhythmia),IC50 (Muscarinic Receptor) [nM],minimal effective dose (Ventricular arrhythmia) [mg/kg]
"CC(C)N(CCC(C(N)=O)(c1ccccc1)c1ccccn1)C(C)C (stereo not shown) [Norpace, reference compound]",active,,
"CC(C)N(CCC1(c2ccccc2Cl)CC(=O)NC1=O)C(C)C (stereo not shown) [Example 4, 3-[2-[bis(1-methylethyl)-amino]ethyl]-3-(2-chlorophenyl)-2,5-pyrrolidinedione]",,300,2.8
"CC(C)N(CCC1(c2ccccc2)CC(=O)NC1=O)C(C)C (stereo not shown) [Example 2, 3-[2-[bis(1-methylethyl)amino]ethyl]-3-phenyl-2,5-pyrrolidinedione]",,140,10
"CCN(CC)CCNC(=O)c1ccc(N)cc1 [procainamide, reference compound]",active,,
"C=C[C@H]1C[N@@]2CC[C@H]1C[C@@H]2[C@@H](O)c1ccnc2ccc(OC)cc12 [quinidine, reference compound]",active,,
CCCN(CCC)CCCC1(c2ccccc2Cl)CC(=O)NC1=O (stereo not shown) [Example 14],,3600,1
"CC1CCCC(C)N1CCC1(c2ccccc2Cl)CC(=O)NC1=O (stereo not shown) [Example 6, 3-(2-chlorophenyl)-3-[2-(2,6-dimethyl-1-piperidinyl)ethyl]-2,5-pyrrolidinedione]",,470,1.3
"CCN(CC)CCC1(c2ccccc2)CC(=O)NC1=O (stereo not shown) [Formula II (Prior Art), reference compound]",,20,2
